The values that follow come from ChEMBL document CHEMBL5518236, “Discovery of Clinical Candidate AZD5462, a Selective Oral Allosteric RXFP1 Agonist for Treatment of Heart Failure” (J Med Chem, 2024).

A word on the EC50: it is the midpoint of the concentration-response curve. High values mean a need for much substance, low ones an effect from little substance. What is called logD is lipophilicity at a set pH, counting ionised and neutral species. Low values mean lower lipophilicity, high ones higher lipophilicity. One may read the Papp A→B as the apparent permeability from the apical to the basolateral side of a cell layer.

Test system in the first data set: not listed separately
As to the kind of experiment: Metabolic stability in human liver microsomes assessed as intrinsic clearance at 1 uM measured upto 30 mins by LC-MS/MS analysis. In kind it is ADME, Microsome. The settings on record: read-out: CLH. (In general: Liver microsomes are a subcellular fraction often used to study metabolism.)
For the molecule `COc1cc(F)c(O[C@H]2CC[C@](C(=O)O)(C(F)(F)F)CC2)cc1C(=O)N[C@@H]1[C@H]2CC[C@H](C2)[C@@H]1C(=O)NCC1(C)CCC1`, the microsomal CLint at 1 µM was under 3 µL/min/mg.
On the same count and under the same terms, to `CC1(CNC(=O)[C@H]2[C@@H]3CC[C@@H](C3)[C@H]2NC(=O)c2cc(O[C@H]3CC[C@@](C)(C(=O)O)CC3)c(F)cc2OCF)CCC1` belongs 36 µL/min/mg; to `COCc1cc(OC)c(C(=O)N[C@@H]2[C@H]3CC[C@H](C3)[C@@H]2C(=O)NCC2(C)CCC2)cc1O[C@H]1CC[C@@](C)(C(=O)O)CC1`, 11 µL/min/mg; to `COc1cc(F)c(O[C@H]2CC[C@@](CC#N)(C(=O)O)CC2)cc1C(=O)N[C@@H]1[C@H]2CC[C@H](C2)[C@@H]1C(=O)NCC1(C)CCC1`, 13 µL/min/mg.
The same measure, in the same setting: to `CC1(CNC(=O)[C@H]2[C@@H]3CC[C@@H](C3)[C@H]2NC(=O)c2cc(O[C@H]3CC[C@@](C)(C(=O)O)CC3)c(C#N)cn2)CCC1` belongs 17 µL/min/mg.

The next data set concerns the target T1, Relaxin receptor 1 (Homo sapiens, UniProt Q9HBX9).
T1 sequence (Q9HBX9 whole entry): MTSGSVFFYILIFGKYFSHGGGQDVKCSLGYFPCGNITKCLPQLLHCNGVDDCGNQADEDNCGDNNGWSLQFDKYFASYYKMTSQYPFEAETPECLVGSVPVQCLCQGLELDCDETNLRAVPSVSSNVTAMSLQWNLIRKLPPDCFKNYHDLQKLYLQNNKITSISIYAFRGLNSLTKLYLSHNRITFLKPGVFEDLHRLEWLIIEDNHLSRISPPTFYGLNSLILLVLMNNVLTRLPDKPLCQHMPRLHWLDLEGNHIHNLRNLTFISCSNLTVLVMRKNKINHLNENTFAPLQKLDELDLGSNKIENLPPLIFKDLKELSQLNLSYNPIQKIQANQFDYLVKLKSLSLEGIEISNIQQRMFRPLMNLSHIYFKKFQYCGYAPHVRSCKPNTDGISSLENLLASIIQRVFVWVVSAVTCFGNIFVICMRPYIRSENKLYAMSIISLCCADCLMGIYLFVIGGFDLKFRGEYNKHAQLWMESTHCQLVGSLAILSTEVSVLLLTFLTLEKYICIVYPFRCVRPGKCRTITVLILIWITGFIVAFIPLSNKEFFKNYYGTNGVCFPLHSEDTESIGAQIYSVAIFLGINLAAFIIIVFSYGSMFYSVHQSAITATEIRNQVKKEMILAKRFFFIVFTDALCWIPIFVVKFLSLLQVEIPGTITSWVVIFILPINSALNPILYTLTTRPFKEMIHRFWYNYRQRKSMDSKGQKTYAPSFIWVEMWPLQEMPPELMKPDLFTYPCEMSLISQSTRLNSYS
Settings: not given
For `CC1(CNC(=O)[C@H]2[C@@H]3CC[C@@H](C3)[C@H]2NC(=O)c2cc(O[C@H]3CC[C@@](C)(C(=O)O)CC3)c(F)cc2OCF)CCC1`, a half-maximal response (EC50) required 6.31 nM.
On the same count and under the same terms, then `COCc1cc(OC)c(C(=O)N[C@@H]2[C@H]3CC[C@H](C3)[C@@H]2C(=O)NCC2(C)CCC2)cc1O[C@H]1CC[C@@](C)(C(=O)O)CC1`, with 1000 nM.
Same read-out and setting: to `COc1cc(F)c(O[C@H]2CC[C@@](CC#N)(C(=O)O)CC2)cc1C(=O)N[C@@H]1[C@H]2CC[C@H](C2)[C@@H]1C(=O)NCC1(C)CCC1` belongs 79.4 nM; to `CC1(CNC(=O)[C@H]2[C@@H]3CC[C@@H](C3)[C@H]2NC(=O)c2cc(O[C@H]3CC[C@@](C)(C(=O)O)CC3)c(C#N)cn2)CCC1`, 100 nM.

Test system in another data set: not listed separately
The data set is described as follows: Metabolic stability in human hepatocytes assessed as intrinsic clearance measured per 10^6 viable cells/ml at 1 uM measured upto 120 mins by LC-MS/MS analysis. In kind it is ADME, cell-based, Hepatocyte. The settings on record: read-out: CLH.
For the molecule `COc1cc(F)c(O[C@H]2CC[C@](C(=O)O)(C(F)(F)F)CC2)cc1C(=O)N[C@@H]1[C@H]2CC[C@H](C2)[C@@H]1C(=O)NCC1(C)CCC1`, the hepatocyte CLint at 1 µM turned out to be 3.9 µL/min/1e6 cells.
On the same count and under the same terms, to `CC1(CNC(=O)[C@H]2[C@@H]3CC[C@@H](C3)[C@H]2NC(=O)c2cc(O[C@H]3CC[C@@](C)(C(=O)O)CC3)c(F)cc2OCF)CCC1` belongs 8.4 µL/min/1e6 cells.
Still for that read-out and setting: to `COCc1cc(OC)c(C(=O)N[C@@H]2[C@H]3CC[C@H](C3)[C@@H]2C(=O)NCC2(C)CCC2)cc1O[C@H]1CC[C@@](C)(C(=O)O)CC1` belongs 3.2 µL/min/1e6 cells; to `COc1cc(F)c(O[C@H]2CC[C@@](CC#N)(C(=O)O)CC2)cc1C(=O)N[C@@H]1[C@H]2CC[C@H](C2)[C@@H]1C(=O)NCC1(C)CCC1`, 10 µL/min/1e6 cells.
`CC1(CNC(=O)[C@H]2[C@@H]3CC[C@@H](C3)[C@H]2NC(=O)c2cc(O[C@H]3CC[C@@](C)(C(=O)O)CC3)c(C#N)cn2)CCC1`: the hepatocyte CLint at 1 µM stood at 3.1 µL/min/1e6 cells.

Test system in a further data set: not listed separately
As to the kind of experiment: Octanol/water partition coefficient, logD of the compound at pH 7.4 by shake flask method. In kind it is physicochemical.
Settings: not given
In turn, `COc1cc(F)c(O[C@H]2CC[C@](C(=O)O)(C(F)(F)F)CC2)cc1C(=O)N[C@@H]1[C@H]2CC[C@H](C2)[C@@H]1C(=O)NCC1(C)CCC1` registered a logD of 2.1.
On the same count and under the same terms, then `CC1(CNC(=O)[C@H]2[C@@H]3CC[C@@H](C3)[C@H]2NC(=O)c2cc(O[C@H]3CC[C@@](C)(C(=O)O)CC3)c(F)cc2OCF)CCC1`, with 3.3; and `COCc1cc(OC)c(C(=O)N[C@@H]2[C@H]3CC[C@H](C3)[C@@H]2C(=O)NCC2(C)CCC2)cc1O[C@H]1CC[C@@](C)(C(=O)O)CC1`, with 3.
`COc1cc(F)c(O[C@H]2CC[C@@](CC#N)(C(=O)O)CC2)cc1C(=O)N[C@@H]1[C@H]2CC[C@H](C2)[C@@H]1C(=O)NCC1(C)CCC1` had a logD of 1.4.
Consider `CC1(CNC(=O)[C@H]2[C@@H]3CC[C@@H](C3)[C@H]2NC(=O)c2cc(O[C@H]3CC[C@@](C)(C(=O)O)CC3)c(C#N)cn2)CCC1`, for which the logD was 2.4.

Test system in the next data set: not listed separately
As to the kind of experiment: Metabolic stability in human liver microsomes assessed as unbound intrinsic clearance at 1 uM measured upto 30 mins by LC-MS/MS analysis. The settings on record: 0.5 h. In kind it is ADME, Microsome.
On to `COc1cc(F)c(O[C@H]2CC[C@](C(=O)O)(C(F)(F)F)CC2)cc1C(=O)N[C@@H]1[C@H]2CC[C@H](C2)[C@@H]1C(=O)NCC1(C)CCC1`, for which the CL free is under 5.5 µL/min/mg.
Turning to `CC1(CNC(=O)[C@H]2[C@@H]3CC[C@@H](C3)[C@H]2NC(=O)c2cc(O[C@H]3CC[C@@](C)(C(=O)O)CC3)c(F)cc2OCF)CCC1`, the CL free came to 62 µL/min/mg.
Still for that read-out and setting: to `COCc1cc(OC)c(C(=O)N[C@@H]2[C@H]3CC[C@H](C3)[C@@H]2C(=O)NCC2(C)CCC2)cc1O[C@H]1CC[C@@](C)(C(=O)O)CC1` belongs 15 µL/min/mg.
Same read-out and setting: to `COc1cc(F)c(O[C@H]2CC[C@@](CC#N)(C(=O)O)CC2)cc1C(=O)N[C@@H]1[C@H]2CC[C@H](C2)[C@@H]1C(=O)NCC1(C)CCC1` belongs 18 µL/min/mg.
On the same count and under the same terms, then `CC1(CNC(=O)[C@H]2[C@@H]3CC[C@@H](C3)[C@H]2NC(=O)c2cc(O[C@H]3CC[C@@](C)(C(=O)O)CC3)c(C#N)cn2)CCC1`, with 20 µL/min/mg.

Test system in a further data set: not listed separately
The data set is described as follows: Apparent permeability across apical to basolateral side in human Caco-2 cells at pH 7.4 by LC-MS/MS analysis. The settings on record: Caco-2, pH 7.4. It counts as ADME, cell-based. On the technique in general: Caco-2 monolayers are a common model of the intestinal barrier.
Take `COc1cc(F)c(O[C@H]2CC[C@](C(=O)O)(C(F)(F)F)CC2)cc1C(=O)N[C@@H]1[C@H]2CC[C@H](C2)[C@@H]1C(=O)NCC1(C)CCC1`: the Papp A→B was 35 ×10⁻⁶ cm/s.

Test system in the next data set: not listed separately
The data set is described as follows: Metabolic stability in human hepatocytes assessed as unbound intrinsic clearance measured per 10^6 viable cells/ml at 1 uM measured upto 120 mins by LC-MS/MS analysis. The conditions noted are these: 2 h. In kind it is ADME, cell-based, Hepatocyte.
With `COc1cc(F)c(O[C@H]2CC[C@](C(=O)O)(C(F)(F)F)CC2)cc1C(=O)N[C@@H]1[C@H]2CC[C@H](C2)[C@@H]1C(=O)NCC1(C)CCC1`, the CL free was found to be 8.8 µL/min.
On the same count and under the same terms, to `CC1(CNC(=O)[C@H]2[C@@H]3CC[C@@H](C3)[C@H]2NC(=O)c2cc(O[C@H]3CC[C@@](C)(C(=O)O)CC3)c(F)cc2OCF)CCC1` belongs 15 µL/min; to `COCc1cc(OC)c(C(=O)N[C@@H]2[C@H]3CC[C@H](C3)[C@@H]2C(=O)NCC2(C)CCC2)cc1O[C@H]1CC[C@@](C)(C(=O)O)CC1`, 44 µL/min.
Still for that read-out and setting: then `COc1cc(F)c(O[C@H]2CC[C@@](CC#N)(C(=O)O)CC2)cc1C(=O)N[C@@H]1[C@H]2CC[C@H](C2)[C@@H]1C(=O)NCC1(C)CCC1`, with 15 µL/min; and `CC1(CNC(=O)[C@H]2[C@@H]3CC[C@@H](C3)[C@H]2NC(=O)c2cc(O[C@H]3CC[C@@](C)(C(=O)O)CC3)c(C#N)cn2)CCC1`, with 4.2 µL/min.
